# Experimental data taken from patent US11292796B2 (SIGNAL PHARMACEUTICALS, LLC, priority 2008, dated 2022).
# Biological target: T1, mTOR (Homo sapiens, UniProt P42345)
# T1 construct: purchased Invitrogen PR8683A
# Assay: mTOR HTR-FRET assay
# Type: biochemical
# Conditions: read-out: Act. Level (IC50 in mTor HTR-FRET assay)
# Summary of the method: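 Test compounds, taken from 10 mM DMSO stocks and diluted, were mixed with mTOR enzyme (0.200 μg/mL) in Tris buffer pH 7.4 with 100 mM NaCl, 0.1% Tween-20 and 1 mM DTT. ATP/substrate addition initiated the reaction, alongside compound-free controls.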
# T1 sequence (P42345 1360-2549 limits assumed): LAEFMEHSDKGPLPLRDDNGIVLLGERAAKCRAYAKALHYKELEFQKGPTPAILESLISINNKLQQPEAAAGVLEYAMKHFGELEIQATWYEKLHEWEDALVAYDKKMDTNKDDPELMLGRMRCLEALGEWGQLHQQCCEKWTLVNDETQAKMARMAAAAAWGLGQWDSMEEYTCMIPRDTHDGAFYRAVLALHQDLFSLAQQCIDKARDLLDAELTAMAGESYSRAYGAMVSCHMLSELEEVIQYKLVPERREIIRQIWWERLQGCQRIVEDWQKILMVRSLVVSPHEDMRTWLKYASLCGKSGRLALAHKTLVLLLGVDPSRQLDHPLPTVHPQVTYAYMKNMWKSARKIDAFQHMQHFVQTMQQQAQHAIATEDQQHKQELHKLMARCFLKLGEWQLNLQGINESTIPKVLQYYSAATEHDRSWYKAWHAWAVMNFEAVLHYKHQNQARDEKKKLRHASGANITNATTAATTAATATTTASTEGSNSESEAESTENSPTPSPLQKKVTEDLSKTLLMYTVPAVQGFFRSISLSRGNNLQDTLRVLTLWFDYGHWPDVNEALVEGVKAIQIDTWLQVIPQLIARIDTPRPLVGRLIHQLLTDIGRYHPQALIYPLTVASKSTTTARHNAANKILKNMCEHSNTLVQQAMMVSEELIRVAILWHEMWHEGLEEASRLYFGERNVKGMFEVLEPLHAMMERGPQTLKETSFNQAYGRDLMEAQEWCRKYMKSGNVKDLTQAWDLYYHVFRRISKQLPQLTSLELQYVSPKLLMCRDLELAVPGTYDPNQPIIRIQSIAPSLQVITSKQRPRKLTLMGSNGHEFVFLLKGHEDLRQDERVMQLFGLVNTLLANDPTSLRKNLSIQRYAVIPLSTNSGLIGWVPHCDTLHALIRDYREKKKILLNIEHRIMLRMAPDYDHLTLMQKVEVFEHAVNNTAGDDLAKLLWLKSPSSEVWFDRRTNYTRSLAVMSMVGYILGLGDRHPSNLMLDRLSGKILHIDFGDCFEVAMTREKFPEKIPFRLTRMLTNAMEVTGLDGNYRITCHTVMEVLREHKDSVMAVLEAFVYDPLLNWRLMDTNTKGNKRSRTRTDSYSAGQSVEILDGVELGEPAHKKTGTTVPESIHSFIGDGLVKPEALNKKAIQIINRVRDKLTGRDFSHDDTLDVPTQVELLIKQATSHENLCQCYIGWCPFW
row,SMILES,IC50 [nM]
1,"CO[C@H]1CC[C@H](N2C(=O)CNc3ncc(-c4ccc(C(C)(C)O)[n+]([O-])c4)nc32)CC1 [Example 198, 2-(2-hydroxypropan-2-yl)-5-(8-(trans-4-methoxycyclohexyl)-7-oxo-5,6,7,8-tetrahydropyrazino[2,3-b]pyrazin-2-yl)pyridine 1-oxide]",1000 to 10000
2,"CO[C@H]1CC[C@H](N2CC(=O)Nc3ncc(-c4ccc(C(C)(C)O)nc4C)nc32)CC1 [Example 82, 6-(6-(2-hydroxypropan-2-yl)-2-methylpyridin-3-yl)-4-(trans-4-methoxycyclohexyl)-3,4-dihydropyrazino[2,3-b]pyrazin-2(1H)-one]",250 to 500
3,"CC(C)(O)c1ccc(-c2cnc3c(n2)N(CC2CCCC2)CC(=O)N3)cn1 [Example 104, 4-(cyclopentylmethyl)-6-(6-(2-hydroxypropan-2-yl)pyridin-3-yl)-3,4-dihydropyrazino[2,3-b]pyrazin-2(1H)-one]",0.005 to 250
4,"O=C1Nc2ncc(-c3ccc(-c4nnc[nH]4)cc3)nc2N2CCOCC12 (stereo not drawn) [Example 119, 9-(4-(4H-1,2,4-triazol-3-yl)phenyl)-6,11,4a-trihydromorpholino[4,3-e]pyrazino[2,3-b]pyrazin-5-one]",0.005 to 250
5,"COc1ccc(-c2cnc3c(n2)N(CCC2CCOCC2)C(=O)CN3)cn1 [Example 191, 7-(6-methoxypyridin-3-yl)-1-(2-(tetrahydro-2H-pyran-4-yl)ethyl)-3,4-dihydropyrazino[2,3-b]pyrazin-2(1H)-one]",500 to 1000
6,"CC(C)(O)c1ccc(-c2cnc3c(n2)N(CC2CC2)CC(=O)N3)cn1 [Example 63, 4-(cyclopropylmethyl)-6-(6-(2-hydroxypropan-2-yl)pyridin-3-yl)-3,4-dihydropyrazino[2,3-b]pyrazin-2(1H)-one]",250 to 500
7,"CO[C@H]1CC[C@H](CN2C(=O)CNc3ncc(-c4ccc(-c5nc[nH]n5)nc4)nc32)CC1 [Example 158, 7-(6-(1H-1,2,4-triazol-3-yl)pyridin-3-yl)-1-((trans-4-methoxycyclohexyl)methyl)-3,4-dihydropyrazino[2,3-b]pyrazin-2(1H)-one]",0.005 to 250
8,"CO[C@H]1C[C@H]2C(=O)Nc3ncc(-c4ccc(-c5nnc[nH]5)cc4C)nc3N2C1 [Example 113, 8-(4-(4H-1,2,4-triazol-3-yl)-2-methylphenyl)(2S,3aS)-2-methoxy-5,10,3a-trihydropyrazino[2,3-b]pyrrolidino[1,2-e]pyrazin-4-one]",250 to 500
9,"C[C@@H](O)c1ccc(-c2cnc3c(n2)N(CCC2CCOCC2)CC(=O)N3)cn1 [Example 75, (R)-6-(6-(1-hydroxyethyl)pyridin-3-yl)-4-(2-(tetrahydro-2H-pyran-4-yl)ethyl)-3,4-dihydropyrazino[2,3-b]pyrazin-2(1H)-one]",0.005 to 250
10,"Cc1cc(-c2nnc[nH]2)ccc1-c1cnc2c(n1)N(CC1CCOCC1)C1(CCC1)C(=O)N2 [Example 62, 7′-(2-methyl-4-(4H-1,2,4-triazol-3-yl)phenyl)-1′-((tetrahydro-2H-pyran-4-yl)methyl)-1′H-spiro[cyclobutane-1,2′-pyrazino[2,3-b]pyrazin]-3′(4′H)-one]",0.005 to 250
11,"O=C1CNc2ncc(-c3cccc4[nH]ccc34)nc2N1CCC1CCOCC1 [Example 167, 7-(1H-indol-4-yl)-1-(2-(tetrahydro-2H-pyran-4-yl)ethyl)-3,4-dihydropyrazino[2,3-b]pyrazin-2(1H)-one]",250 to 500
12,"CO[C@@H]1CC[C@H](N2C(=O)CNc3ncc(-c4ccc(C(C)(C)O)nc4)nc32)C1 [Example 209, 7-(6-(2-hydroxypropan-2-yl)pyridin-3-yl)-1-((1S,3R)-3-methoxycyclopentyl)-3,4-dihydropyrazino[2,3-b]pyrazin-2(1H)-one]",0.005 to 250
13,"O=C1CN(CCC2CCOCC2)c2nc(-c3ccc4[nH]ncc4c3)cnc2N1 [Example 69, 6-(1H-indazol-5-yl)-4-(2-(tetrahydro-2H-pyran-4-yl)ethyl)-3,4-dihydropyrazino[2,3-b]pyrazin-2(1H)-one]",250 to 500
14,"COCCN1C(=O)CNc2ncc(-c3ccc(C(C)(C)O)cc3)nc21 [Example 252, 7-(4-(2-hydroxypropan-2-yl)phenyl)-1-(2-methoxyethyl)-3,4-dihydropyrazino[2,3-b]pyrazin-2(1H)-one]",1000 to 10000
15,"CC(C)(O)c1ccc(-c2cnc3c(n2)N2CCOCC2C(=O)N3)cn1 (stereo not drawn) [Example 133, 9-[6-(1-hydroxy-isopropyl)-3-pyridyl]-6,11,4a-trihydromorpholino[4,3-e]pyrazino[2,3-b]pyrazin-5-one]",500 to 1000
16,"Cc1cc(-c2nnc[nH]2)ccc1-c1cnc2c(n1)NC1(CCCC1)C(=O)N2 [Example 64, 7′-(2-methyl-4-(4H-1,2,4-triazol-3-yl)phenyl)-1′H-spiro[cyclopentane-1,2′-pyrazino[2,3-b]pyrazin]-3′(4′H)-one]",250 to 500
17,"C[C@H]1C(=O)Nc2ncc(-c3ccc(C(C)(C)O)nc3)nc2N1CCC1CCOCC1 [Example 132, (S)-6-(6-(2-hydroxypropan-2-yl)pyridin-3-yl)-3-methyl-4-(2-(tetrahydro-2H-pyran-4-yl)ethyl)-3,4-dihydropyrazino[2,3-b]pyrazin-2(1H)-one]",0.005 to 250

row,SMILES,IC50 [nM]
1,"CC(C)N1C(=O)CNc2ncc(-c3ccc(-c4nc[nH]n4)nc3)nc21 [Example 172, 7-(6-(1H-1,2,4-triazol-3-yl)pyridin-3-yl)-1-isopropyl-3,4-dihydropyrazino[2,3-b]pyrazin-2(1H)-one]",0.005 to 250
2,"CCN1C(=O)CNc2ncc(-c3cc(F)c(-c4nc[nH]n4)cc3C)nc21 [Example 177, 1-ethyl-7-(5-fluoro-2-methyl-4-(1H-1,2,4-triazol-3-yl)phenyl)-3,4-dihydropyrazino[2,3-b]pyrazin-2(1H)-one]",0.005 to 250
3,"COCCN1CC(=O)Nc2ncc(-c3ccc(-c4nnc[nH]4)cc3)nc21 [Example 144, 6-(4-(4H-1,2,4-triazol-3-yl)phenyl)-4-(2-methoxyethyl)-3,4-dihydropyrazino[2,3-b]pyrazin-2(1H)-one]",0.005 to 250
4,"COCCN1CC(=O)Nc2ncc(-c3ccc(-c4nnc[nH]4)c(F)c3C)nc21 [Example 49, 6-(3-fluoro-2-methyl-4-(4H-1,2,4-triazol-3-yl)phenyl)-4-(2-methoxyethyl)-3,4-dihydropyrazino[2,3-b]pyrazin-2(1H)-one]",0.005 to 250
5,"O=C1CNc2ncc(-c3cncnc3)nc2N1CCC1CCOCC1 [Example 190, 7-(pyrimidin-5-yl)-1-(2-(tetrahydro-2H-pyran-4-yl)ethyl)-3,4-dihydropyrazino[2,3-b]pyrazin-2(1H)-one]",1000 to 10000
6,"CO[C@H]1CC[C@H](N2C(=O)CNc3ncc(-c4ccc(C(C)(C)O)cc4)nc32)CC1 [Example 233, 7-(4-(2-hydroxypropan-2-yl)phenyl)-1-(trans-4-methoxycyclohexyl)-3,4-dihydropyrazino[2,3-b]pyrazin-2(1H)-one]",0.005 to 250
7,"CO[C@H]1CC[C@@H](N2CC(=O)Nc3ncc(-c4ccc(-c5nc[nH]n5)c(F)c4C)nc32)CC1 [Example 28, 6-(3-fluoro-2-methyl-4-(1H-1,2,4-triazol-3-yl)phenyl)-4-(cis-4-methoxycyclohexyl)-3,4-dihydropyrazino[2,3-b]pyrazin-2(1H)-one]",0.005 to 250
8,"CO[C@H]1CC[C@H](N2C(=O)CNc3ncc(-c4ccc(C(C)(C)O)nc4)nc32)C1 [Example 210, 7-(6-(2-hydroxypropan-2-yl)pyridin-3-yl)-1-((1S,3S)-3-methoxycyclopentyl)-3,4-dihydropyrazino[2,3-b]pyrazin-2(1H)-one]",0.005 to 250
9,"O=C1CNc2ncc(-c3cnc4nc[nH]c4c3)nc2N1CCC1CCOCC1 [Example 218, 7-(1H-imidazo[4,5-b]pyridin-6-yl)-1-(2-(tetrahydro-2H-pyran-4-yl)ethyl)-3,4-dihydropyrazino[2,3-b]pyrazin-2(1H)-one]",1000 to 10000
10,"COCCN1C(=O)CNc2ncc(-c3ccc(-c4nnc[nH]4)c(F)c3)nc21 [Example 242, 7-(3-fluoro-4-(4H-1,2,4-triazol-3-yl)phenyl)-1-(2-methoxyethyl)-3,4-dihydropyrazino[2,3-b]pyrazin-2(1H)-one]",0.005 to 250
11,"CC(C)(O)c1ccc(-c2cnc3c(n2)N(CCN2CCOCC2)C(=O)CN3)cn1 [Example 216, 7-(6-(2-hydroxypropan-2-yl)pyridin-3-yl)-1-(2-morpholinoethyl)-3,4-dihydropyrazino[2,3-b]pyrazin-2(1H)-one]",0.005 to 250
12,"Cc1cc(-c2nnc[nH]2)ccc1-c1cnc2c(n1)N(CCC1CCOCC1)C(C)C(=O)N2 (stereo not drawn) [Example 107, 3-methyl-6-(2-methyl-4-(4H-1,2,4-triazol-3-yl)phenyl)-4-(2-(tetrahydro-2H-pyran-4-yl)ethyl)-3,4-dihydropyrazino[2,3-b]pyrazin-2(1H)-one]",0.005 to 250
13,"Cc1cc(-c2nc[nH]n2)c(F)cc1-c1cnc2c(n1)N([C@H]1CC[C@H](O)CC1)C(=O)CN2 [Example 174, 7-(5-fluoro-2-methyl-4-(1H-1,2,4-triazol-3-yl)phenyl)-1-(trans-4-hydroxycyclohexyl)-3,4-dihydropyrazino[2,3-b]pyrazin-2(1H)-one]",0.005 to 250
14,"CO[C@H]1CC[C@@H](CN2CC(=O)Nc3ncc(-c4ccc(C(C)(C)O)nc4)nc32)C1 [Example 57, 6-(6-(2-hydroxypropan-2-yl)pyridin-3-yl)-4-(((1R,3S)-3-methoxycyclopentyl)methyl)-3,4-dihydropyrazino[2,3-b]pyrazin-2(1H)-one]",0.005 to 250
15,"Cc1nc(-c2nnc[nH]2)ccc1-c1cnc2c(n1)N(CCC1CCOCC1)C(C)(C)C(=O)N2 [Example 80, 3,3-dimethyl-6-(2-methyl-6-(4H-1,2,4-triazol-3-yl)pyridin-3-yl)-4-(2-(tetrahydro-2H-pyran-4-yl)ethyl)-3,4-dihydropyrazino[2,3-b]pyrazin-2(1H)-one]",0.005 to 250
16,"CNc1nc2c(C)cc(-c3cnc4c(n3)N(CCC3CCOCC3)CC(=O)N4)cc2[nH]1 [Example 139, 6-(4-methyl-2-(methylamino)-1H-benzo[d]imidazol-6-yl)-4-(2-(tetrahydro-2H-pyran-4-yl)ethyl)-3,4-dihydropyrazino[2,3-b]pyrazin-2(1H)-one]",0.005 to 250
